Assay results published in patent publication US12378224B2 (Dong-A Socio Holdings Co., Ltd., priority 2016, dated 2025).

Key:
[1] = molecular target: CD8-MerTK (Ba/F3-CDM cells) (Homo sapiens, UniProt Q12866); assay: In Cell MER Kinase Assay Using BaF3 Cellular System; type: cell-based; conditions: Ba/F3-CDM proliferation without IL-3, 48 hours, Celltiter-Glo
Text: CD8-MerTK is a chimeric fusion protein consisting of the extracellular and transmembrane domains of the human CD8α (amino acids 1 to 209) at its N-terminus and the kinase domain and intracellular parts of MerTK (amino acids 521-994) at its C-terminus. To establish an in cell kinase assay for MerTK kinase, the IL-3 dependent Ba/F3 cells of murine lymphoid origin was transfected with CD8-MerTK. The resulting Ba/F3-CDM line was then validated that Ba/F3-CDM cell proliferation is completely dependent on the activity of MerTK kinase activity when growing in the absence of IL-3. For a routine cellular assay, Ba/F3-CDM cells were seeded at 2,000 cells per well in 384-well cell culture plate containing DMEM/10% FBS culture media and incubated for 24 hours before addition of compounds pre-diluted in culture media. Following compound treatment, cells were further incubated for 48 hours and the proliferation was measured. To discriminate a Ba/F3 growth inhibition by a specific inhibition of MerTK kinase following compound treatment vs growth inhibition due to a non-specific unintended cytotoxicity of compounds, we routinely carried out control sets of Ba/F3 cells in parallel that grown in IL3-supplemented growth media. In the presence of IL-3, the proliferation of Ba/F3 is no longer dependent on the MerTK activity. Cell growth and proliferation was measured with Celltiter-Glo™ system (Promega, USA) according to the manufacturer's instruction. The half-maximal growth inhibitory concentration (GI50) value was calculated with Prism6.0 software (GraphPad, USA).

[2] = molecular target: human c-MER catalytic domain (Homo sapiens (Human), UniProt Q12866); assay: TR-FRET Kinase Activity Biochemical Assay (LanthaScreen); conditions: 10 uM ATP, 1 hour, kinase not given
Sequence of human c-MER catalytic domain (Q12866 587-858): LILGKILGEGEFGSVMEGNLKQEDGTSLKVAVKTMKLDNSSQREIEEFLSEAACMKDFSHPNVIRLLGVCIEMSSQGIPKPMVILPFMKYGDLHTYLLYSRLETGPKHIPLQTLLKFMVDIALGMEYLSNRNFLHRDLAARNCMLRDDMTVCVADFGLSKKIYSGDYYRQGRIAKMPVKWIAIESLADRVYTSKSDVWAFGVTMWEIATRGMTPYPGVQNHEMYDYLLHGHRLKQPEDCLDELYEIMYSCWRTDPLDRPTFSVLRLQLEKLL
Procedure, shortened: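 Recombinant human c-MER catalytic domain phosphorylated fluorescein-labeled poly-GT substrate. The reaction was stopped with 10 mM EDTA, then 2 nM Tb-labeled anti-phosphotyrosine antibody was added for 30 min. Kinase activity was taken from the 495/520 nm TR-FRET emission ratio after 340 nm excitation.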

Sequence of CD8-MerTK (Ba/F3-CDM cells) (Q12866 21-999 limits assumed, stated change not applied): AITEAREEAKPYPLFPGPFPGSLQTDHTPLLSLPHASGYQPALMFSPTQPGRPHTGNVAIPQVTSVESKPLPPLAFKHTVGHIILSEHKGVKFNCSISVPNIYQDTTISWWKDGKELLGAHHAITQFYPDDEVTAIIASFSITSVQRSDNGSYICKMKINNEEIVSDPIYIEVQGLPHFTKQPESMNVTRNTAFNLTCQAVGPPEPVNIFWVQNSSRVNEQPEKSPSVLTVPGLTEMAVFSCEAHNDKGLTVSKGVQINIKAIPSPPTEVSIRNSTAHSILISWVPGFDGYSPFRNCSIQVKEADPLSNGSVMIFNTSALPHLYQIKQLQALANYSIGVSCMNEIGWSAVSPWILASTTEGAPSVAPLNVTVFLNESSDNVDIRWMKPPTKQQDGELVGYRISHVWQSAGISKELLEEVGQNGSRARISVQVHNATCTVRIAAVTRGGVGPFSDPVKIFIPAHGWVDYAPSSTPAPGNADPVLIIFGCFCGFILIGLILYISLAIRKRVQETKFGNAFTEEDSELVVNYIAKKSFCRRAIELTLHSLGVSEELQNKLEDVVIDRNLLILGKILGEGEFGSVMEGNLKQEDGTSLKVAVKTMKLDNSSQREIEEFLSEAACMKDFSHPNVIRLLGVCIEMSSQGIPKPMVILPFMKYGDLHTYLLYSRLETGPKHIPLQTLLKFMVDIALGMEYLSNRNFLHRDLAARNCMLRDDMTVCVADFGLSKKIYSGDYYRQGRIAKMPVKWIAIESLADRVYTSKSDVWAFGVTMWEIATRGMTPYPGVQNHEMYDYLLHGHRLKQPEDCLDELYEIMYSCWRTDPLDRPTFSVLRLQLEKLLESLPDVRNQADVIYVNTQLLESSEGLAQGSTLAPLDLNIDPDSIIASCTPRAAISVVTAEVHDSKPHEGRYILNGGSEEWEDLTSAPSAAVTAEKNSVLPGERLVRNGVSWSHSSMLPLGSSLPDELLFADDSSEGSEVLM

Molecule | IC50 [1] [nM] | IC50 [2] [nM]
(R)-2-amino-N-(1 chlorophenyl)carbamoyl)pyrrolidin-3-yl)-5-(1-(1-methylpiperidin-4-yl)-1H-pyrazol-4-yl)nicotinamide [Example 11] | > 1000 | 10 to 100
Cn1cc(-c2cnc(N)c(C(=O)N[C@@H]3CCN(C(=O)c4ccc(-c5ccc(OCC6CCNCC6)cc5)cc4)C3)c2)cn1 [Example 550] | > 1000 | 10 to 100
Nc1cncc(-c2cnc(N)c(C(=O)N[C@@H]3CCN(C(=O)c4ccc(-c5ccc(F)cc5Cl)cc4)C3)c2)c1 [Example 583, (R)-5′,6-diamino-N-(1-(2′-chloro-4′-fluoro-[1,1′-biphenyl]-4-carbonyl)pyrrolidin-3-yl)-[3,3′-bipyridine]-1-5-carboxamide] | > 1000 | < 10
Cn1cc(-c2cnc(N)c(C(=O)N[C@@H]3CCN(C(=O)Oc4cccc(OCC5CCC(N)CC5)c4)C3)c2)cn1 (stereo partly drawn) [Example 305, 3-(((1R,4R)-4-aminocyclohexyl)methoxy)phenyl (R)-3-(2-amino-5-(1-methyl-1H-pyrazol-4-yl)nicotinamido)pyrrolidine-1-carboxylate] | > 1000 | 100 to 1000
(R)-2-amino-N-(1-(2′-chloro-[1,1′-biphenyl]-4-carbonyl)pyrrolidin-3-yl)-5-(4-(4-methylpiperazin-1-yl)phenyl)nicotinamide [Example 570] | 100 to 500 | < 10
(R)-2-amino-N-(1-((4′-(dimethylamino)-[1,1′-biphenyl]-3-yl)carbamoyl)pyrrolidin-3-yl)-5-(1-methyl-1H-pyrazol-4-yl)nicotinamide [Example 263] | > 1000 | 10 to 100
Cn1cc(-c2cnc(N)c(C(=O)N[C@@H]3CCN(C(=O)Oc4ccc5cc(OCC6CCNCC6)ccc5c4)C3)c2)cn1 [Example 303] | 500 to 1000 | 10 to 100
